Data as given in US20180353483A1, “PHARMACEUTICAL COMPOSITIONS AND METHODS FOR INDOLEAMINE, 2, 3-DIOXYGENASE INHIBITION AND INDICATIONS THEREFOR” (Incyte Corporation, priority 2015, published 2018).
Where two headings read alike, the source gives them in different places.

Experiment: Pharmacokinetics of Compound 1 in combination with MK-3475 in subjects with various cancers
Type: in vivo, human
Procedure: The subjects were not limited to a specific cancers and study include subjects with various cancers. […] One treatment cycle consisted of 21 days. […] Additional subjects were enrolled in a cohort to achieve the minimum of 3 evaluable subjects if dropouts or dose interruptions or reductions occur that result in a subject being non-evaluable for DLTs. […] An additional safety cohort was opened at 100 mg BID in parallel to 300 mg BID being tested. This may also be limited to subjects with melanoma, NSCLC, or specific cancer types from among those included in Phase 1. The RP2D was selected from the evaluated safety expansions.
If a dose was missed by more than 4 hours, that dose was skipped and was resumed at the scheduled time.
Pharmacokinetic samples were obtained at the visits of Cycle 1 Day 1, Cycle 1 Day 8 and Cycle 2 Day 1. […] The exact date and time of the PK blood draws were recorded in the eCRF along with the date and time of the last dose of study drug and details of the last meal preceding the blood draw.
The planned PK time points were used for preliminary PK analyses.

[1] = subjects with dose reduction before C4D1, 50 mg BID, C1D8, mean ± SD

**Q.** With NS(=O)(=O)NCCNc1nonc1C(=NO)Nc1ccc(F)c(Br)c1 [Compound 1, 4-({2-[(aminosulfonyl)amino]ethyl}amino)-N-(3-bromo-4-fluorophenyl)-N′-hydroxy-1,2,5-oxadiazole-3-carboximidamide] as the compound, how does the AUC(0-t) (human, plasma, oral, 100 mg, Diagnosis DLBCL, first dose, geometric mean, read-out: AUC0-t) read?
**A.** 1.9 µM·h

**Q.** And the Cmax (human, plasma, oral, 100 mg, Diagnosis DLBCL, first dose, mean ± SD)?
**A.** 732 ± 370 nM

**Q.** What about the tmax (human, plasma, oral, 100 mg, Diagnosis DLBCL, first dose, median, read-out: tmax) of the same compound?
**A.** 3 h

**Q.** What about the Cmax (human, plasma, oral, 100 mg, Diagnosis GU, first dose, geometric mean) of the same compound?
**A.** 878 nM

**Q.** What about the AUC(0-t) (human, plasma, oral, 100 mg, Diagnosis GU, first dose, geometric mean, read-out: AUC0-t) of the same compound?
**A.** 2.71 µM·h

**Q.** What about the Cmax (human, plasma, oral, 100 mg, Diagnosis GU, first dose, mean ± SD) of the same compound?
**A.** 986 ± 492 nM

**Q.** What about the AUC(0-t) (human, plasma, oral, 100 mg, Diagnosis GU, first dose, mean ± SD, read-out: AUC0-t) of the same compound?
**A.** 2.96 ± 1.28 µM·h

**Q.** What about the AUC(0-t) (human, plasma, oral, 100 mg, Diagnosis MEL, first dose, geometric mean, read-out: AUC0-t) of the same compound?
**A.** 2.37 µM·h

**Q.** And the Cmax (human, plasma, oral, 100 mg, Diagnosis MEL, first dose, mean ± SD)?
**A.** 870 ± 347 nM

**Q.** And the AUC(0-t) (human, plasma, oral, 100 mg, Diagnosis MEL, first dose, mean ± SD, read-out: AUC0-t)?
**A.** 2.48 ± 0.773 µM·h

**Q.** What about the Cmax (human, plasma, oral, 100 mg, Diagnosis NSCLC PD-L1 High, first dose, geometric mean) of the same compound?
**A.** 878 nM

**Q.** What about the AUC(0-t) (human, plasma, oral, 100 mg, Diagnosis NSCLC PD-L1 High, first dose, geometric mean, read-out: AUC0-t) of the same compound?
**A.** 2.62 µM·h

**Q.** What about the Cmax (human, plasma, oral, 100 mg, Diagnosis NSCLC PD-L1 High, first dose, mean ± SD) of the same compound?
**A.** 1020 ± 573 nM

**Q.** And the AUC(0-t) (human, plasma, oral, 100 mg, Diagnosis NSCLC PD-L1 High, first dose, mean ± SD, read-out: AUC0-t)?
**A.** 2.88 ± 1.3 µM·h

**Q.** And the tmax (human, plasma, oral, 100 mg, Diagnosis NSCLC PD-L1 High, first dose, median, read-out: tmax)?
**A.** 1.5 h

**Q.** What about the Cmax (human, plasma, oral, 100 mg, Diagnosis NSCLC PD-L1 Low/NE, first dose, geometric mean) of the same compound?
**A.** 857 nM

**Q.** And the AUC(0-t) (human, plasma, oral, 100 mg, Diagnosis NSCLC PD-L1 Low/NE, first dose, geometric mean, read-out: AUC0-t)?
**A.** 2.66 µM·h

**Q.** And the AUC(0-t) (human, plasma, oral, 100 mg, Diagnosis NSCLC PD-L1 Low/NE, first dose, mean ± SD, read-out: AUC0-t)?
**A.** 2.77 ± 0.839 µM·h

**Q.** And the Cmax (human, plasma, oral, 100 mg, Diagnosis OC, first dose, geometric mean)?
**A.** 886 nM

**Q.** And the AUC(0-t) (human, plasma, oral, 100 mg, Diagnosis OC, first dose, geometric mean, read-out: AUC0-t)?
**A.** 2.99 µM·h

**Q.** What about the Cmax (human, plasma, oral, 100 mg, Diagnosis OC, first dose, mean ± SD) of the same compound?
**A.** 967 ± 405 nM

**Q.** What about the AUC(0-t) (human, plasma, oral, 100 mg, Diagnosis OC, first dose, mean ± SD, read-out: AUC0-t) of the same compound?
**A.** 3.16 ± 1.1 µM·h

**Q.** What about the tmax (human, plasma, oral, 100 mg, Diagnosis RCC, first dose, individual values of 2 subjects, read-out: tmax) of the same compound?
**A.** 3 h

**Q.** And the Cmax (human, plasma, oral, 100 mg, Diagnosis SCCHN, first dose, geometric mean)?
**A.** 649 nM

**Q.** What about the AUC(0-t) (human, plasma, oral, 100 mg, Diagnosis SCCHN, first dose, geometric mean, read-out: AUC0-t) of the same compound?
**A.** 2.06 µM·h

**Q.** And the Cmax (human, plasma, oral, 100 mg, Diagnosis SCCHN, first dose, mean ± SD)?
**A.** 769 ± 439 nM

**Q.** What about the Cmax (human, plasma, oral, 100 mg, Diagnosis TNBC, first dose, geometric mean) of the same compound?
**A.** 898 nM

**Q.** And the AUC(0-t) (human, plasma, oral, 100 mg, Diagnosis TNBC, first dose, geometric mean, read-out: AUC0-t)?
**A.** 2.82 µM·h

**Q.** What about the Cmax (human, plasma, oral, 100 mg, Diagnosis TNBC, first dose, mean ± SD) of the same compound?
**A.** 1030 ± 574 nM

**Q.** And the AUC(0-t) (human, plasma, oral, 100 mg, Diagnosis TNBC, first dose, mean ± SD, read-out: AUC0-t)?
**A.** 3.08 ± 1.39 µM·h

**Q.** And the AUC(0-t) (human, plasma, oral, 100 mg, by dose, 100 mg BID, steady state C1D8, geometric mean, read-out: AUC0-12 h (converted))?
**A.** 3.57 µM·h

**Q.** What about the AUC(0-t) (human, plasma, oral, 100 mg, by dose, 100 mg BID, steady state C1D8, mean ± SD, read-out: AUC0-12 h (converted)) of the same compound?
**A.** 3.82 ± 1.37 µM·h

**Q.** What about the AUC(0-t) (human, plasma, oral, 100 mg, by dose, 100 mg, first dose, mean ± SD, read-out: AUC0-t) of the same compound?
**A.** 2.47 ± 0.861 µM·h

**Q.** And the AUC(0-t) (human, plasma, oral, 300 mg, Cohort 6, 300 mg BID, steady state C1D8, geometric mean, read-out: AUC0-12 h (converted))?
**A.** 11.3 µM·h

**Q.** What about the AUC(0-t) (human, plasma, oral, 300 mg, Cohort 6, 300 mg BID, steady state C1D8, mean ± SD, read-out: AUC0-12 h (converted)) of the same compound?
**A.** 12.3 ± 6.09 µM·h

**Q.** And the Cmax (human, plasma, oral, 300 mg, Cohort 6, 300 mg, first dose, geometric mean)?
**A.** 1790 nM

**Q.** What about the AUC(0-t) (human, plasma, oral, 300 mg, Cohort 6, 300 mg, first dose, geometric mean, read-out: AUC0-t) of the same compound?
**A.** 6.92 µM·h

**Q.** And the Cmax (human, plasma, oral, 300 mg, Cohort 6, 300 mg, first dose, mean ± SD)?
**A.** 2220 ± 1720 nM

**Q.** And the AUC(0-t) (human, plasma, oral, 300 mg, Cohort 6, 300 mg, first dose, mean ± SD, read-out: AUC0-t)?
**A.** 7.47 ± 3.32 µM·h

**Q.** And the AUC(0-t) (human, plasma, oral, 300 mg, Cohort 7, 300 mg BID, steady state C1D8, geometric mean, read-out: AUC0-12 h (converted))?
**A.** 11.3 µM·h

**Q.** And the Cmax (human, plasma, oral, 300 mg, Cohort 7, 300 mg BID, steady state C1D8, mean ± SD)?
**A.** 2750 ± 1220 nM

**Q.** What about the AUC(0-t) (human, plasma, oral, 300 mg, Cohort 7, 300 mg BID, steady state C1D8, mean ± SD, read-out: AUC0-12 h (converted)) of the same compound?
**A.** 12.2 ± 5.92 µM·h

**Q.** And the Cmax (human, plasma, oral, 300 mg, Cohort 7, 300 mg, first dose, geometric mean)?
**A.** 2170 nM

**Q.** What about the AUC(0-t) (human, plasma, oral, 300 mg, Cohort 7, 300 mg, first dose, geometric mean, read-out: AUC0-t) of the same compound?
**A.** 6.88 µM·h

**Q.** And the Cmax (human, plasma, oral, 300 mg, Cohort 7, 300 mg, first dose, mean ± SD)?
**A.** 2330 ± 925 nM

**Q.** What about the AUC(0-t) (human, plasma, oral, 300 mg, Cohort 7, 300 mg, first dose, mean ± SD, read-out: AUC0-t) of the same compound?
**A.** 7.38 ± 2.86 µM·h

**Q.** What about the AUC(0-t) (human, plasma, oral, 300 mg, by dose, 300 mg BID, steady state C1D8, geometric mean, read-out: AUC0-12 h (converted)) of the same compound?
**A.** 11.3 µM·h

**Q.** What about the Cmax (human, plasma, oral, 300 mg, by dose, 300 mg BID, steady state C1D8, mean ± SD) of the same compound?
**A.** 2740 ± 1190 nM

**Q.** What about the AUC(0-t) (human, plasma, oral, 300 mg, by dose, 300 mg BID, steady state C1D8, mean ± SD, read-out: AUC0-12 h (converted)) of the same compound?
**A.** 12.3 ± 5.81 µM·h

**Q.** And the AUC(0-t) (human, plasma, oral, 300 mg, by dose, 300 mg, first dose, geometric mean, read-out: AUC0-t)?
**A.** 6.89 µM·h

**Q.** And the AUC(0-t) (human, plasma, oral, 300 mg, by dose, 300 mg, first dose, mean ± SD, read-out: AUC0-t)?
**A.** 7.41 ± 2.95 µM·h

**Q.** And the Cmax (human, plasma, oral, 300 mg, subjects with dose reduction before C4D1, 300 mg BID, C1D8, geometric mean)?
**A.** 3000 nM

**Q.** And the AUC(0-t) (human, plasma, oral, 300 mg, subjects with dose reduction before C4D1, 300 mg BID, C1D8, geometric mean, read-out: AUC0-12 h (converted))?
**A.** 13.3 µM·h

**Q.** What about the Cmax (human, plasma, oral, 300 mg, subjects with dose reduction before C4D1, 300 mg BID, C1D8, mean ± SD) of the same compound?
**A.** 3180 ± 1280 nM

**Q.** And the AUC(0-t) (human, plasma, oral, 300 mg, subjects with dose reduction before C4D1, 300 mg BID, C1D8, mean ± SD, read-out: AUC0-12 h (converted))?
**A.** 14.6 ± 7.4 µM·h

**Q.** And the “dose proportionality of exposures” value (non-compartmental analysis)?
**A.** approximate dose-proportional exposures

**Q.** And the AUC0-12 h (subjects with dose reduction before C4D1, 50 mg BID, C1D8, geometric mean)?
**A.** (2.29) μM * h

**Q.** And the AUC0-12 h [1]?
**A.** 2.41 ± 0.980 µM·h

**Q.** And the CL/F [1]?
**A.** 52.0 ± 17.1 L/h

**Q.** What about the tmax (subjects with dose reduction before C4D1, 50 mg BID, C1D8, median) of the same compound?
**A.** 2.00 h

**Q.** And the CL/F (subjects with dose reduction before C4D1, 300 mg BID, C1D8, mean ± SD)?
**A.** 55.4 ± 23.0 L/h

**Q.** What about the tmax (subjects with dose reduction before C4D1, 300 mg BID, C1D8, median) of the same compound?
**A.** 2.00 h
